From patent publication US7745422B2, “Bisphosphonate compounds and methods for bone resorption diseases, cancer, bone pain, immune disorders, and infectious diseases” (The Board of Trustees of the University of Illinois, priority 2004, dated 2010)
Like-named read-outs stand apart in the source and are kept apart here.

Experiments:
[1] = system: Dictyostelium discoideum; assay: D. discoideum cell growth inhibition; assay type: cell-based
Description: (§1) We then investigated the activity of each compound in inhibiting the FPPS from L. major, in Dictyostelium discoideum growth inhibition and in γδ T cell activation. We used the FPPS from L. major since this enzyme is the putative bisphosphonate target in several trypanosomatid species.

[2] = system: Vγ2Vδ2 T cells; assay: gammadelta T cell stimulation (TNF-α release assay); assay type: cell-based, human
Description: as §1

[3] = molecular target: T1, human FPPS (Homo sapiens, UniProt P14324); assay: human FPPS assay; assay type: biochemical
T1 sequence (P14324 1-419): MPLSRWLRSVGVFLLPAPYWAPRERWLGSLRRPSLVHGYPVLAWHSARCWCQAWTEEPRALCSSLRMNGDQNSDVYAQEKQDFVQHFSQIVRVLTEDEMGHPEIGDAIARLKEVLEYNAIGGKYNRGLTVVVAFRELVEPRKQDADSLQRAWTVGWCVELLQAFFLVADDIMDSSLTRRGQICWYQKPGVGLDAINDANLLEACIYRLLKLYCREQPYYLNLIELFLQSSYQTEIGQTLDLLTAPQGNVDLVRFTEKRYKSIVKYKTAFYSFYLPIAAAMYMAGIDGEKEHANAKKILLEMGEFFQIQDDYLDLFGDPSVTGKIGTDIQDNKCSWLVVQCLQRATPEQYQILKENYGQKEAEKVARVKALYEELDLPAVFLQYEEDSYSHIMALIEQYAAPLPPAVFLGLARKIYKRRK

[4] = Table 4, read-out: (1) D. discoideum IC50
[5] = Table 4, read-out: (3) gammadelta T cell stimulation EC50
[6] = Table 4, read-out: (2) human FPPS IC50
[7] = TNF-α release, Table 1 and text, read-out: gammadelta T cell stimulation, EC50
[8] = cell growth inhibition, Table 1 and text, read-out: D. discoideum IC50
[9] = Table 3, additional testing, read-out: gammadelta T cell stimulation EC50
[10] = Dictyostelium discoideum, read-out: (1) D. discoideum IC50
[11] = Homo sapiens, T-cell, read-out: gammadelta T cell stimulation EC50
[12] = Homo sapiens, T-cell, read-out: (3) gammadelta T cell stimulation EC50

SMILES | IC50 [1, 4] [µM] | EC50 [2, 5] [µM] | other results
CC([n+]1ccccc1)C(O)(P(=O)([O-])O)P(=O)(O)O (single isomer, unassigned) [Compound 583] | 14 | 50 | 
CC([n+]1ccccc1)C(O)(P(=O)([O-])O)P(=O)(O)O (single isomer, unassigned) [Compound 591] | 38 |  | IC50 [3, 6]: 29 µM
O=P([O-])(O)C(O)(C[n+]1cccc(-c2cccc(-c3ccccc3)c2)c1)P(=O)(O)O (centres unmarked) [Compound 364] |  | > 1000 | EC50 [2, 7]: > 1000 µM; IC50 [3, 6]: 37 µM
O=P([O-])(O)C(O)(C[n+]1ccc2ccccc2c1)P(=O)(O)O (centres unmarked) [Compound 398] | 20 | 41 | IC50 [1, 8]: 20 µM; EC50 [2, 7]: 41 µM; EC50 [2, 9]: 40.6 µM
O=P([O-])(O)C(O)(C[n+]1ccc(Cc2ccccc2)cc1)P(=O)(O)O (centres unmarked) [Compound 443] | 12 | 230 | IC50 [1, 8]: 12 µM; activity in gammadelta T cell stimulation ([2]; TNF-α release): poor activity; EC50 [2, 7]: 230 µM; EC50 [2, 9]: 187 µM
CCc1ccc[n+](CC(O)(P(=O)([O-])O)P(=O)(O)O)c1 (centres unmarked) [Compound 444] | 5.6 | 5.1 | IC50 [1, 8]: 5.6 µM; EC50 [2, 7]: 5.1 µM; EC50 [2, 9]: 2.8 µM
O=P([O-])(O)C(O)(C[n+]1cccc2cc(Cl)ccc21)P(=O)(O)O (centres unmarked) [Compound 447] | 72 | 53 | IC50 [1, 8]: 72 µM; EC50 [2, 7]: 53 µM
O=P([O-])(O)C(O)(C[n+]1cccc(-c2ccc(C(F)(F)F)cc2)c1)P(=O)(O)O (centres unmarked) [Compound 449] | 4 | 12 | 
CN(C)c1cc[n+](CC(O)(P(=O)([O-])O)P(=O)(O)O)cc1 (centres unmarked) [Compound 451] | 31 |  | (3) gammadelta T cell stimulation EC50 ([2]; Table 4): inactive; IC50 [3, 6]: 280 µM
Cc1ccc2c(ccc[n+]2CC(O)(P(=O)([O-])O)P(=O)(O)O)c1 (centres unmarked) [Compound 452] | 73 | 250 | 
O=P([O-])(O)C(O)(CC[n+]1ccccc1)P(=O)(O)O (centres unmarked) [Compound 455] | 27 | 25 | 
COc1cc[n+](CC(O)(P(=O)([O-])O)P(=O)(O)O)cc1 (centres unmarked) [Compound 456] | 27 | 19 | 
Cc1ccc2ccc[n+](CC(O)(P(=O)([O-])O)P(=O)(O)O)c2c1 (centres unmarked) [Compound 457] | 14 | 1900 | 
Cc1cc(C)c[n+](CC(O)(P(=O)([O-])O)P(=O)(O)O)c1 (centres unmarked) [Compound 459] | 27 | 14 | 
Cc1cc[n+](CC(O)(P(=O)([O-])O)P(=O)(O)O)cc1C (centres unmarked) [Compound 460] | 14 | 13 | 
O=P([O-])(O)C(O)(C[n+]1cccc(-c2ccc(F)cc2)c1)P(=O)(O)O (centres unmarked) [Compound 462] | 2.7 | 15 | 
O=P([O-])(O)C(C[n+]1ccccc1)P(=O)(O)O (centres unmarked) [Compound 470] | 3.5 |  | EC50 [2, 9]: 3.3 µM
O=P([O-])(O)C(O)(C[n+]1ccc(-c2ccncc2)cc1)P(=O)(O)O (centres unmarked) [Compound 471] |  |  | (1) D. discoideum IC50 ([1]; Table 4): inactive; (3) gammadelta T cell stimulation EC50 ([2]; Table 4): inactive
O=P([O-])(O)C(C[n+]1cccc(-c2ccccc2)c1)P(=O)(O)O (centres unmarked) [Compound 472] | 2.5 |  | EC50 [2, 9]: 2.1 µM
O=P([O-])(O)C(C[n+]1ccc2ccccc2c1)P(=O)(O)O (centres unmarked) [Compound 473] | 20 |  | EC50 [2, 9]: 20.1 µM

SMILES | IC50 [1, 4] [µM] | EC50 [2, 5] [µM] | other results
Cc1ccc[n+](CC(P(=O)([O-])O)P(=O)(O)O)c1 (centres unmarked) [Compound 474] | 4.4 |  | EC50 [2, 9]: 2.4 µM
CCc1ccc[n+](CC(P(=O)([O-])O)P(=O)(O)O)c1 (centres unmarked) [Compound 475] | 4.1 |  | EC50 [2, 9]: 2.8 µM
CCCCc1ccc[n+](CC(P(=O)([O-])O)P(=O)(O)O)c1 (centres unmarked) [Compound 476] | 2.3 |  | EC50 [2, 9]: 2 µM
O=P([O-])(O)C(C[n+]1cccc(F)c1)P(=O)(O)O (centres unmarked) [Compound 477] | 2.7 |  | EC50 [2, 9]: 1.8 µM; IC50 [3, 6]: 1.4 µM
O=P([O-])(O)C(O)(C[n+]1ccc(-c2ccccc2)cc1)P(=O)(O)O (centres unmarked) [Compound 478] | 760 |  | (3) gammadelta T cell stimulation EC50 ([2]; Table 4): inactive
COc1ccc[n+](CC(O)(P(=O)([O-])O)P(=O)(O)O)c1 (centres unmarked) [Compound 479] |  | 15 | 
O=P([O-])(O)C(C[n+]1cccc(Cc2ccccc2)c1)P(=O)(O)O (centres unmarked) [Compound 480] | 3 |  | EC50 [2, 9]: 68.7 µM
O=P([O-])(O)C(C[n+]1ccc(Cc2ccccc2)cc1)P(=O)(O)O (centres unmarked) [Compound 481] | 3.5 |  | EC50 [2, 9]: 83.4 µM
O=P([O-])(O)C(C[n+]1cccc(Br)c1)P(=O)(O)O (centres unmarked) [Compound 483] |  |  | IC50 [1, 10]: 2.5 µM; EC50 [2, 11]: 2.9 µM
O=P([O-])(O)C(O)(C[n+]1cccc(Br)c1)P(=O)(O)O (centres unmarked) [Compound 484] |  |  | IC50 [1, 10]: 3.5 µM; EC50 [2, 11]: 4.6 µM; IC50 [3]: 2.5 µM
O=P([O-])(O)C(C[n+]1ccc(C(F)(F)F)cc1)P(=O)(O)O (centres unmarked) [Compound 485] | 58 | 370 | 
O=P([O-])(O)C(C[n+]1cccc(S(=O)(=O)N2CCCC2)c1)P(=O)(O)O (centres unmarked) [Compound 502] | 100 |  | (3) gammadelta T cell stimulation EC50 ([2]; Table 4): inactive
O=P([O-])(O)C(C[n+]1cccc(C(F)(F)F)c1)P(=O)(O)O (centres unmarked) [Compound 511] | 4.1 | 14 | IC50 [3, 6]: 2.5 µM
O=P([O-])(O)C(O)(C[n+]1ccc(C(F)(F)F)cc1)P(=O)(O)O (centres unmarked) [Compound 513] | 1500 | 550 | 
O=P([O-])(O)C(O)(C[n+]1cccc(C(F)(F)F)c1)P(=O)(O)O (centres unmarked) [Compound 520] |  |  | IC50 [1, 10]: 6.3 µM; EC50 [2, 12]: 14 µM
O=P([O-])(O)C(C[n+]1ccccc1F)P(=O)(O)O (centres unmarked) [Compound 521] | 570 | 790 | 
O=P([O-])(O)C(C[n+]1cc(F)cc(F)c1)P(=O)(O)O (centres unmarked) [Compound 523] | 4.6 | 11 | 
O=P([O-])(O)C(O)(C[n+]1cccc(Cl)c1)P(=O)(O)O (centres unmarked) [Compound 524] |  |  | IC50 [1, 10]: 2.4 µM; EC50 [2, 12]: 10 µM
O=Cc1ccc[n+](CC(P(=O)([O-])O)P(=O)(O)O)c1 (centres unmarked) [Compound 525] | 8.4 | 11 | 
O=P([O-])(O)C(C[n+]1cccc(Cl)c1)P(=O)(O)O (centres unmarked) [Compound 526] | 2.1 | 8.6 | IC50 [3, 6]: 1.2 µM

SMILES | IC50 [1, 4] [µM] | EC50 [2, 5] [µM] | other results
O=C(c1ccccc1)c1ccc[n+](CC(P(=O)([O-])O)P(=O)(O)O)c1 (centres unmarked) [Compound 530] | 190 | 6500 | 
O=P([O-])(O)C(C[n+]1ccc(-n2nnc3ccccc32)cc1)P(=O)(O)O (centres unmarked) [Compound 531] | 20 |  | (3) gammadelta T cell stimulation EC50 ([2]; Table 4): inactive
O=Cc1cccc(-c2ccc[n+](CC(P(=O)([O-])O)P(=O)(O)O)c2)c1 (centres unmarked) [Compound 532] | 4.1 | 41 | 
O=P([O-])(O)C(C[n+]1cccc(-c2ccc(F)c(F)c2)c1)P(=O)(O)O (centres unmarked) [Compound 533] |  | 19 | 
O=P([O-])(O)C(O)(C[n+]1cc(F)cc(-c2ccccc2)c1)P(=O)(O)O (centres unmarked) [Compound 534] |  | 16 | 
CP(=O)([O-])C(C[n+]1cccc(-c2ccccc2)c1)P(C)(=O)O (centres unmarked) [Compound 556] |  | 2300 | (1) D. discoideum IC50 ([1]; Table 4): inactive
CCCOc1cccc(-c2ccc[n+](CC(P(=O)([O-])O)P(=O)(O)O)c2)c1 (centres unmarked) [Compound 577] | 4.1 | 21 | 
COc1cccc(-c2ccc[n+](CC(P(=O)([O-])O)P(=O)(O)O)c2)c1 (centres unmarked) [Compound 578] | 4 | 20 | 
CCCCOc1cccc(-c2ccc[n+](CC(P(=O)([O-])O)P(=O)(O)O)c2)c1 (centres unmarked) [Compound 579] | 6 | 20 | 
O=P([O-])(O)C(O)(C[n+]1cccc(I)c1)P(=O)(O)O (centres unmarked) [Compound 582] | 3.5 |  | IC50 [3, 6]: 1.6 µM
CCCCOc1ccc(-c2ccc[n+](CC(P(=O)([O-])O)P(=O)(O)O)c2)cc1 (centres unmarked) [Compound 586] | 6 | 90 | 
CCCCC#Cc1ccc[n+](CC(P(=O)([O-])O)P(=O)(O)O)c1 (centres unmarked) [Compound 597] |  | 58 | IC50 [3, 6]: 1.9 µM
CCCCCCc1ccc[n+](CC(P(=O)([O-])O)P(=O)(O)O)c1 (centres unmarked) [Compound 598] | 1.7 | 35 | 
CC(C)=CCc1ccc[n+](CC(P(=O)([O-])O)P(=O)(O)O)c1 (centres unmarked) [Compound 599] | 1.7 | 69 | 
CCCCOc1ccc(-c2ccc[n+](CC(O)(P(=O)([O-])O)P(=O)(O)O)c2)cc1 (centres unmarked) [Compound 600] | 11 | 290 | 
CC(C)=CCCC(C)=CCc1ccc[n+](CC(P(=O)([O-])O)P(=O)(O)O)c1 (centres unmarked) [Compound 601] | 2.4 | 220 | 
CC(C)C#Cc1ccc[n+](CC(P(=O)([O-])O)P(=O)(O)O)c1 (centres unmarked) [Compound 602] | 2.04 | 18 | 
CC(C)CCc1ccc[n+](CC(P(=O)([O-])O)P(=O)(O)O)c1 (centres unmarked) [Compound 603] |  | 22 | 
CCCCCCCCc1ccc[n+](CC(P(=O)([O-])O)P(=O)(O)O)c1 (centres unmarked) [Compound 605] |  | 6 | 
